In patent US4341786A, “Pharmaceutical compositions and method of producing central alpha1 agonist activity utilizing octahydrobenzo[f]quinoline compounds” (SmithKline Corporation, priority 1981, dated 1982):
Where a name gives a salt, the structure may show the parent alone.

Target: postjunctional alpha1 receptors
Test: postjunctional alpha1 agonist activity (EC50), isolated segment of rabbit ear artery
Conditions: smooth muscle tension, dose producing 50% of the maximum response (norepinephrine)
From the text: The assay procedure is described by Steinsland et al. J. Pharm. Exp. Ther. 184:346-356, 1973. Briefly, this test comprises sacrificing a white rabbit and removing the central ear artery. The artery is cannulated at both ends and placed in a perfusion chamber. The artery is simultaneously perfused intraluminally and superfused extraluminally with Krebs solution. The compound to be tested can be administered by means of either the intraluminal or extraluminal flow. The sympathetic nerve is excited at four minute intervals by field stimulation. The selective alpha1 agonist activity is measured as the ability to increase perfusion pressure (mm Hg.) without inhibiting response to sympathetic nerve stimulation.
A quantitation of postjunctional alpha1 agonist activity (EC50) is determined for compounds showing activity in the above test. This is accomplished by employing an isolated segment of rabbit ear artery. The segment is mounted in a chamber superfused with oxygenated Krebs solution. The segment is suspended between two tungsten wires, one attached to the chamber, the other to a force-displacement transducer so that smooth muscle tension can be measured directly. Before administration of the test drug, norepinephrine is administered in increasing concentration (10^-8 M to 3×10^-6 M) to determine maximum response of the artery. […]

Structure (SMILES): COc1ccc(OC)c2c1CCC1NCCCC21 (stereo not shown) [7,10-dimethoxy-1,2,3,4,4a,5,6,10-b-octahydro-benzo[f]quinoline hydrochloride]
- EC50: 190 nM
